Test results published in patent US12103952B2, “Methods for expressing proteins in axons” (Cornell University, priority 2010, dated 2024).

Columns and labels:
4E-BP1 = assay: Phospho-4E-BP1 immunofluorescence in axons; type: cell-based, rat; conditions: NGF 1 hour after 2 hour NGF-free media
Procedure: FIGS. 2A-E are results showing that local protein synthesis in axons is required for NGF-dependent survival. (A) Phospho-4E-BP1 levels increase in growth cones in response to NGF treatment. DRG neurons were incubated with NGF-replete or NGF-free media; phospho-4E-BP1 levels in axons were measured by immunofluorescence. Scale bar, 50 μm. (B) Quantification of total and phospho-4EBP1 in (A) p=0.012. Numbers on bars represent n axons per condition. (C) Schematic diagram of compartmented (Campenot) chambers. E15 dissociated DRG neurons are cultured in the cell body compartment and axons grow under a thinly applied silicone grease layer that seals the chamber with the Permanox® plastic culture slide. (D) Application of protein synthesis inhibitors to axons blocks NGF-mediated retrograde survival. Dissociated DRG neurons were grown in compartmentalized chambers, and vehicle or NGF was added to the axon compartment. 1 μM cycloheximide (CHX) or 40 μM anisomycin (Aniso) were added to the axon compartment concurrently with NGF media. Cell body compartments were kept NGF-free during the course of the experiment. Cells crossing the divider were retrogradely labeled with WGA-Alexa555 and only WGA-positive cell bodies were counted in the data set. Survival was assessed by TUNEL assay. […] (E) Quantification of results from (D). *p<0.001. […]

pCREB = assay: Nuclear pCREB, pTrkA and pErk5 immunofluorescence after axonal NGF in compartmented cultures; type: cell-based, rat; conditions: 30 ng/ml NGF on axons, 20 min
Description: FIGS. 9A-E are data showing that axonal CREB is required for CRE-dependent transcription and NGF-mediated DRG survival. (A) DRG axons in compartmented cultures were transfected with CREB siRNA in the axon compartment only, and CREB levels were detected using a CREB antibody. Axons crossing the compartment divider were retrogradely labeled with WGA-Alexa488. All compartments were maintained in NGF-containing media throughout the experiment. Scale bar, 50 μm. (B) Quantification of data in (A). Immunofluorescence levels in each compartment were normalized to fluorescence signals from cultures treated with non-targeting siRNA. *p<0.0001. Numbers on bars represent n axons per condition. […] After 48 hours, 30 ng/ml NGF was added to the axon compartment for 20 min, after which pCREB levels in nuclei were quantified by immunofluorescence. *p=0.0004. […]
FIGS. 10A-G are data showing selective CREB knockdown in distal axons, but not proximal axons determined by compartmentalized siRNA transfection. […] (B) Quantification of data in (A). FISH levels in each compartment were normalized to fluorescence signals from cultures treated with non-targeting siRNA. β-actin mRNA FISH signals were unaffected by CREB-specific siRNA. *p<0.001. […] (C) Transfection was as in FIG. 9A, except CREB knockdown was assessed by Western blot instead of immunofluorescence. […]

NGF: nerve growth factor
phosphorylation of 4E-BP1 in axons (4E-BP1): increased phosphorylation of 4E-BP1 at S64 and T69
levels of pCREB in the nucleus (pCREB): increased levels of pCREB in the nucleus
